Measurements: US8513423B2 (Janssen Pharmaceutica, NV, priority 2010, dated 2013)
Substitutions are numbered along the chain they refer to. Read-outs that look alike come from different tables or passages of the source.

Key:
[1] = biological target: T1, purified wild type MGL (wt-MGLL 6H-11-313) (Homo sapiens, UniProt Q99685); experiment: MGL enzyme activity assay (4MU-B cleavage), wild type MGL; type: biochemical; settings: 10 μM 4MU-B, 5 nM enzyme, 37° C., read-out: MGL wild type inh IC50
T1 construct: purified wild type MGL (wt-MGLL 6H-11-313)
T1 sequence (Q99685 1-303): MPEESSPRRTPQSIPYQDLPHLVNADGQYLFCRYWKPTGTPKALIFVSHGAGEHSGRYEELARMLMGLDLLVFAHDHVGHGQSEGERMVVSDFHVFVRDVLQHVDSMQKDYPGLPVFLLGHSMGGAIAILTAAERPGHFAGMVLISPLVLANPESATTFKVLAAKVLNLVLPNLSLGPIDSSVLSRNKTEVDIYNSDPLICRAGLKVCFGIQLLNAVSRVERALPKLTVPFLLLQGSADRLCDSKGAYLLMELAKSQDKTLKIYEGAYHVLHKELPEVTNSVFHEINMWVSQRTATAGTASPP
Experimental: All rate-based assays were performed in black 384-well polypropylene PCR microplates (Abgene) in a total volume of 30 μL. Substrate 4-methylumbelliferyl butyrate (4MU-B; Sigma) and either purified mutant MGL (mut-MGLL 11-313 L179S L186S) or purified wild type MGL (wt-MGLL 6H-11-313) were diluted separately into 20 mM PIPES buffer (pH=7.0), containing 150 mM NaCl and 0.001% Tween 20. Compounds of Formula (I) were pre-dispensed (50 nL) into the assay plate using a Cartesian Hummingbird prior to adding 4MU-B (25 μL of 1.2× solution to a final concentration of 10 μM) followed by enzyme (5 μL of a 6× solution to a final concentration of 5 nM) to initiate the reaction. Final compound concentrations ranged from 17 to 0.0003 μM. The fluorescence change due to 4MU-B cleavage was monitored with excitation and emission wavelengths of 335 and 440 nm, respectively, and a bandwidth of 10 nm (Safire^2, Tecan) at 37° C. for 5 min.
The IC50 values for compounds of Formula (I) were determined using Excel from a fit of the equation to the concentration-response plot of the fractional activity as a function of inhibitor concentration.

[2] = biological target: T2, mutant MGL (Homo sapiens, UniProt Q99685, L169S/L176S); experiment: MGL ThermoFluor assay - mutant; type: binding
T2 construct: purified mutant MGL (mut-MGLL 11-313 L179S L186S)
T2 sequence (Q99685 1-303 L169S/L176S): T1 sequence (Q99685 1-303) with L169S, L176S
Experimental: The ThermoFluor (TF) assay is a 384-well plate-based binding assay that measures thermal stability of proteins^1,2. The experiments were carried out using instruments available from Johnson & Johnson Pharmaceutical Research & Development, LLC. TF dye used in all experiments was 1,8-ANS (Invitrogen: A-47). Final TF assay conditions used for MGL studies were 0.07 mg/ml of mutant MGL, 100 μM ANS, 200 mM NaCl, 0.001% Tween-20 in 50 mM PIPES (pH=7.0).
Screening compound plates contained 100% DMSO compound solutions at a single concentration. For follow-up concentration-response studies, compounds were arranged in a pre-dispensed plate (Greiner Bio-one: 781280), wherein compounds were serially diluted in 100% DMSO across 11 columns within a series. Columns 12 and 24 were used as DMSO reference and contained no compound. For both single and multiple compound concentration-repsonse experiments, the compound aliquots (46 nL) were robotically predispensed directly into 384-well black assay plates (Abgene: TF-0384/k) using the Hummingbird liquid handler. Following compound dispension, protein and dye solutions were added to achieve the final assay volume of 3 μL. The assay solutions were overlayed with 1 μl of silicone oil (Fluka, type DC 200: 85411) to prevent evaporation.
Bar-coded assay plates were robotically loaded onto a thermostatically controlled PCR-type thermal block and then heated from 40 to 90° C. degrees at a ramp-rate of 1° C./min for all experiments. Fluorescence was measured by continuous illumination with UV light (Hamamatsu LC6), supplied via fiber optics and filtered through a band-pass filter (380-400 nm; >6 OD cutoff). Fluorescence emission of the entire 384-well plate was detected by measuring light intensity using a CCD camera (Sensys, Roper Scientific) filtered to detect 500±25 nm, resulting in simultaneous and independent readings of all 384 wells. A single image with 20-sec exposure time was collected at each temperature, and the sum of the pixel intensity in a given area of the assay plate was recorded vs temperature and fit to standard equations to yield the Tm^1. • 1. Pantoliano, M. W., Petrella, E. C., Kwasnoski, J. D., Lobanov, V. S., Myslik, J., Graf, E., Carver, T., Asel, E., Springer, B. A., Lane, P., and Salemme, F. R. (2001) J Biomol Screen 6, 429-40. • 2. Matulis, D., Kranz, J. K., Salemme, F. R., and Todd, M. J. (2005) Biochemistry 44, 5258-66.
The Kd values for compounds of Formula (I) were determined from a fit of the equation to the concentration-response plot of the fractional activity as a function of Tm. For some experiments, quantitative NMR spectroscopy (qNMR) was used to measure concentration of the initial 100% DMSO compound solutions and, using the same fitting method, qKd values were determined

[3] = 0.07 mg/ml mutant MGL, pH=7.0, read-out: MGL mutant ThermoFluor Kd
[4] = compound concentration measured by qNMR, read-out: MGL mutant ThermoFluor qKd (using qNMR conc.)

## O=C(c1ccccc1)N1CCC(O)(C2CN(C(=O)c3cc4cc(C(F)(F)F)ccc4s3)C2)CC1 [Cpd 6, 1-(Phenylcarbonyl)-4-(1-{[5-(trifluoromethyl)-1-benzothiophen-2-yl]carbonyl}azetidin-3-yl)piperidin-4-ol]
[1]
  IC50: 918 nM
[2]; [3]
  Kd: 258 nM

## Cc1c(C(=O)N2CCC(C3CN(C(=O)c4cscn4)C3)CC2)sc2cc(C(F)(F)F)ccc12 [Cpd 61]
[1]
  IC50: 211 nM
[2]; [3]
  Kd: 0.6 nM
[2]; [4]
  Kd: 0.5 nM

## O=C(c1cscn1)N1CC(C2CCN(C(=O)c3ccc(-c4ccccc4)cc3F)CC2)C1 [Cpd 46]
[1]
  IC50: 111 nM
[2]; [4]
  Kd: 20 nM

## Cc1nc2cc(C(=O)N3CC(C4CCN(C(=O)c5nccs5)CC4)C3)ccc2n1-c1ccc(F)c(F)c1 [Cpd 88, 1-(3,4-Difluorophenyl)-2-methyl-5-({3-[1-(1,3-thiazol-2-ylcarbonyl)piperidin-4-yl]azetidin-1-yl}carbonyl)-1H-benzimidazole]
[1]
  IC50: 9.49 nM
[2]; [4]
  Kd: 13.3 nM

## O=C(c1ccc2c(c1)ncn2-c1ccc(F)c(F)c1)N1CC(C2CCN(C(=O)c3nccs3)CC2)C1 [Cpd 82, 1-(3,4-Difluorophenyl)-5-({3-[1-(1,3-thiazol-2-ylcarbonyl)piperidin-4-yl]azetidin-1-yl}carbonyl)-1H-benzimidazole]
[1]
  IC50: 35.5 nM
[2]; [4]
  Kd: 22.8 nM

## Cc1nc2cc(C(=O)N3CC(C4CCN(C(=O)c5nccs5)CC4)C3)ccc2n1CC(F)(F)F [Cpd 90, 2-Methyl-5-({3-[1-(1,3-thiazol-2-ylcarbonyl)piperidin-4-yl]azetidin-l-yl}carbonyl)-1-(2,2,2-trifluoroethyl)-1H-benzimidazole]
[1]
  IC50: 173 nM
[2]; [4]
  Kd: 23.7 nM

## Cc1cc(-n2ccc3cc(C(=O)N4CC(C5CCN(C(=O)c6nccs6)CC5)C4)ccc32)ccn1 [Cpd 95, 1-(2-Methylpyridin-4-yl)-5-({3-[1-(1,3-thiazol-2-ylcarbonyl)piperidin-4-yl]azetidin-1-yl}carbonyl)-1H-indole]
[1]
  IC50: 14 nM
[2]; [4]
  Kd: 38.6 nM

## O=C(c1ccc2c(ccn2-c2ccc(C(F)(F)F)cc2)c1)N1CCC(C2CN(C(=O)c3nccs3)C2)CC1 [Cpd 75, 5-({4-[1(1,3-Thiazol-2-ylcarbonyl)azetidin-3-yl]piperidin-1-yl}carbonyl)-1-[4-(trifluoromethyl)phenyl]-1H-indole]
[1]
  IC50: < 5 nM
[2]; [4]
  Kd: 3.9 nM

## O=C(c1ccc2c(c1)ncn2CCC(F)(F)F)N1CC(C2CCN(C(=O)c3nccs3)CC2)C1 [Cpd 85, 5-({3-[1-(1,3-Thiazol-2-ylcarbonyl)piperidin-4-yl]azetidin-1-yl}carbonyl)-1-(3,3,3-trifluoropropyl)-1H-benzimidazole]
[1]
  IC50: 280 nM
[2]; [4]
  Kd: 64.5 nM

## O=C(c1ccc2c(c1)[nH]c(=O)n2-c1ccc(F)c(F)c1)N1CC(C2CCN(C(=O)c3nccs3)CC2)C1 [Cpd 98, 1-(3,4-Difluorophenyl)-5-({3-[1-(1,3-thiazol-2-ylcarbonyl)piperidin-4-yl]azetidin-1-yl}carbonyl)-1,3-dihydro-2H-benzimidazol-2-one]
[1]
  IC50: 16.6 nM
[2]; [4]
  Kd: 43.6 nM

## Cc1nc2cc(C(=O)N3CC(C4CCN(C(=O)c5nccs5)CC4)C3)ccc2n1-c1ccc(F)cc1 [Cpd 87, 1-(4-Fluorophenyl)-2-methyl-5-({3-[1-(1,3-thiazol-2-ylcarbonyl)piperidin-4-yl]azetidin-1-yl}carbonyl)-1H-benzimidazole]
[1]
  IC50: 31.6 nM
[2]; [4]
  Kd: 7.5 nM

## O=C(c1cc[nH]c1)N1CCC(C2CN(C(=O)c3ccc(-c4ccccc4)cc3)C2)CC1 [Cpd 4, 4-[1-(Biphenyl-4-ylcarbonyl)azetidin-3-yl]-1-(1H-pyrrol-3-ylcarbonyl)piperidine]
[1]
  IC50: 154 nM
[2]; [3]
  Kd: 162 nM

## O=C(c1ccc2c(c1)[nH]c(=O)n2C1CCC(F)(F)CC1)N1CC(C2CCN(C(=O)c3nccs3)CC2)C1 [Cpd 101, 1-(4,4-Difluorocyclohexyl)-5-({3-[1-(1,3-thiazol-2-ylcarbonyl)piperidin-4-yl]azetidin-1-yl}carbonyl)-1,3-dihydro-2H-benzimidazol-2-one]
[1]
  IC50: 104 nM
[2]; [4]
  Kd: 3.9 nM

## O=C(c1ccc2c(ccn2-c2ccc(Cl)cn2)c1)N1CC(C2CCN(C(=O)c3nccs3)CC2)C1 [Cpd 93, 1-(5-Chloropyridin-2-yl)-5-({3-[1-(1,3-thiazol-2-ylcarbonyl)piperidin-4-yl]azetidin-1-yl}carbonyl)-1H-indole]
[1]
  IC50: < 5 nM
[2]; [3]
  Kd: 5.5 nM

## Cc1nc2cc(C(=O)N3CC(C4CCN(C(=O)c5nccs5)CC4)C3)ccc2n1-c1ccccc1 [Cpd 86, 2-Methyl-1-phenyl-5-({3-[1-(1,3-thiazol-2-ylcarbonyl)piperidin-4-yl]azetidin-1-yl}carbonyl)-1H-benzimidazole]
[1]
  IC50: 18.7 nM
[2]; [4]
  Kd: 10.6 nM

## O=C(c1ccc2c(c1)[nH]c(=O)n2-c1ccc(F)cc1)N1CC(C2CCN(C(=O)c3nccs3)CC2)C1 [Cpd 97, 1-(4-Fluorophenyl)-5-({3-[1-(1,3-thiazol-2-ylcarbonyl)piperidin-4-yl]azetidin-1-yl}carbonyl)-1,3-dihydro-2H-benzimidazol-2-one]
[1]
  IC50: 34 nM
[2]; [4]
  Kd: 22.1 nM

## Cc1nc2cc(C(=O)N3CC(C4CCN(C(=O)c5nccs5)CC4)C3)ccc2n1CCC(F)(F)F [Cpd 91, 2-Methyl-5-({3-[1-(1,3-thiazol-2-ylcarbonyl)piperidin-4-yl]azetidin-l-yl}carbonyl)-1-(3,3,3-trifluoropropyl)-1H-benzimidazole]
[1]
  IC50: 237 nM
[2]; [4]
  Kd: 32.5 nM

## O=C(c1cscn1)N1CCC(C2CN(C(=O)c3ccc(-c4ccccc4)cc3F)C2)CC1 [Cpd 9, 4-{1-[(3-Fluorobiphenyl-4-yl)carbonyl]azetidin-3-yl}-1-(1,3-thiazol-4-ylcarbonyl)piperidine]
[1]
  IC50: 114 nM
[2]; [3]
  Kd: 100 nM

## O=C(c1ccc2c(c1)ncn2-c1ccc(F)cc1)N1CC(C2CCN(C(=O)c3nccs3)CC2)C1 [Cpd 81, 1-(4-Fluorophenyl)-5-({3-[1-(1,3-thiazol-2-ylcarbonyl)piperidin-4-yl]azetidin-1-yl}carbonyl)-1H-benzimidazole]
[1]
  IC50: 23.2 nM
[2]; [4]
  Kd: 14.8 nM
